Reference: patent US20090221666A1, “STILBENE DERIVATIVES AND METHODS OF INHIBITING CANCER CELL GROWTH AND MICROBIAL GROWTH” (priority 2005, published 2009)

How the values were obtained:
[1] = test system: SF-295; assay: cells; type: cell-based, human
Method: (§1) Cytotoxicity assays were performed by the sulforhodamine B method, in which inhibition of formation of cellular protein is measured (Ref. 42). The mitotic index of MCF-7 breast cancer cells was determined as described previously (Ref. 27), except that cells were incubated in the presence of drug for 16 h prior to addition of the DNA stain.

[2] = test system: MCF-7; assay: cells; type: cell-based, human; conditions: MCF-7
Method: as §1

[3] = test system: BXPC-3; assay: cells; type: cell-based, human
Method: as §1

[4] = test system: KM20L2; assay: cells; type: cell-based, human; conditions: KM20L2
Method: as §1

[5] = test system: NCI-H460; assay: cells; type: cell-based, human
Method: as §1

[6] = test system: DU145; assay: cells; type: cell-based, human; conditions: DU145
Method: as §1

[7] = test system: Bovine brain tubulin (colchicine site); assay: Inhibition of [3H]colchicine binding to tubulin; conditions: 50 μM inhibitor; 1.0 μM tubulin, 5.0 μM [3H]colchicine
Method: (§2) Bovine brain tubulin was prepared and the tubulin assembly and colchicine binding assays were performed as described previously. In the assembly assay, reaction mixtures contained 1.0 mg/mL (10 μM) tubulin and varying concentrations of potential inhibitors. In the colchicine binding assay reaction mixtures contained 0.1 mg/mL (1.0 μM) tubulin, 5.0 μM [^3H]colchicine, and potential inhibitor as indicated. The vinblastine binding assay was performed as described previously for GTP binding by centrifugal gel filtration, except that a Beckman Allegra 6KR centrifuge equipped with a GH-3.8A swinging bucket rotor was used and the syringe-columns were centrifuged at 2,000 rpm (Ref. 38-41). Reaction mixtures contained 0.5 mg/mL (5.0 μM) tubulin, 5 μM [^3H]vinblastine, potential inhibitor as indicated, 0.5 mM MgCl2, 0.1 M 4-morpholineethanesulfonate (1.0 M stock solution adjusted to pH 6.9 with NaOH, and 4% (v/v) dimethyl sulfoxide. Incubation (30 min) and centrifugal gel filtration were performed at room temperature (20-22° C.).

[8] = test system: MCF-7 breast cancer cells; assay: Mitotic index of MCF-7 cells; type: cell-based, human; conditions: 16 h at 10 times the IC50 concentration; without drug 2.9%
Method: as §1

[9] = test system: human cancer cell lines and murine P388; assay: cells; type: cell-based; conditions: mini-panel of human cancer cell lines
Method: as §1

[10] = test system: Bovine brain tubulin; assay: Inhibition of tubulin assembly; type: biochemical; conditions: 1.0 mg/mL (10 μM) tubulin; read-out: Inhibition of tubulin assembly IC50 (μM) ± SD
Method: as §2

[11] = test system: Bovine brain tubulin (vinca domain); assay: Inhibition of [3H]vinblastine binding to tubulin; conditions: 5.0 μM tubulin, 5 μM [3H]vinblastine
Method: as §2

[12] = test system: MCF-7 breast cancer cells; assay: Inhibition of growth of MCF-7 breast cancer cells (sulforhodamine B); type: cell-based, human
Method: as §1

[13] = test system: P388 lymphocytic leukemia cell line; type: cell-based; conditions: murine P388 lymphocytic leukemia cell line
Method: as §1

CC[C@H](C)[C@@H]([C@@H](CC(=O)N1CCC[C@H]1[C@H](OC)[C@@H](C)C(=O)Nc1cc(/C=C\c2cc(OC)c3c(c2)OCO3)ccc1OC)OC)N(C)C(=O)[C@@H](NC(=O)[C@H](C(C)C)N(C)C)C(C)C [Compound 16, 3,4-Methylenedioxy-5,4′-dimethoxy-3′-(Dov-Val-Dil-Dap)-amido-Z-stilbene]
CNS SF-295 GI50 [1]: 0.025 µg/mL | Breast MCF-7 GI50 [2]: 0.0031 µg/mL | Pancreas BXPC-3 GI50 [3]: 0.048 µg/mL | Colon KM20L2 GI50 [4]: 0.020 µg/mL | Lung-NSC NCI-H460 GI50 [5]: 0.033 µg/mL | Prostate DU145 GI50 [6]: 0.032 µg/mL | Inhibition of colchicine binding % Inhibition ± SD [7]: 30 ± 2% | Mitotic index of MCF-7 cells % Mitoses [8]: 57% | inhibition of mini-panel of human cancer cell lines (in words) [9]: strongly inhibiting | IC50 [10]: 1.3 ± 0.04 µM | Inhibition of vinblastine binding % Inhibition ± SD ([11]; 10 μM inhibitor): 48 ± 3% | Inhibition of vinblastine binding % Inhibition ± SD ([11]; 80 μM inhibitor): 87 ± 2% | IC50 ([12]; MCF-7, read-out: Inhibition of growth of MCF-7 breast cancer cells IC50 (nM) ± SD): 17 nM | times as active as hydrochloride 1b, MCF-7 cells ([12]; relative to 1b): ~4 times | activity as fraction of D-10 (4a), MCF-7 cells ([12]; relative to 4a): 1/200 | Leukemia P388 ED50 [13]: <0.01 µg/mL
